According to patent US8577617B2, “Metabolic phenotyping” (priority 2002, dated 2013):
Values joined by “and” are separate entries in the source; they are usually repeats but may differ in a detail not shown here. Equal values may be shown once. “Also recorded” adds a separate entry of the source. Values belong to the compound of their own block, whether it stands above or below them.

Assays:
[1] = test system: male Sprague-Dawley rats; experiment: Histopathology of liver after dosing galactosamine HCl; assay type: in vivo, rat; conditions: for histopathological changes: 200 mg/kg i.p.
Source text: (§1) Thirty young adult age-matched male Sprague-Dawley rats were obtained from Charles River, France. After observation to ensure that they each appeared healthy they were placed in individual metabolism cages with free access to water and a standard commercial laboratory diet (diet AO4C from Usine d'Alimentation Rationnelle, Villemoisson-sur-Orge, France). The laboratory temperature was maintained at 20.+−−.2 degrees C. and the relative humidity at 60.±.20%. The laboratory air was filtered and changed 14 times per hour. A fixed ‘12 hours light-12 hours dark’ cycle was imposed. The study commenced after a short period of cage ‘acclimatisation’. At the time of dosing (at the start of day 1) the growing rats were each approximately 260 g in mass. Galactosamine (abbreviated GaIN) HCl (from Sigma, France) was dissolved in physiological saline and dosed by intraperitoneal injection at either 200 mg/kg or at 800 mg/kg; ten animals (nos. 101-110) received the low dose and ten animals (nos. 201-210) received the high dose. Ten control animals (nos. 1-10) received an oral dose of corn oil. Five of each group of ten rats were euthanased by means of CO2 on day 2 with the remainder being euthanased by the same technique on day 8. The early-euthanased rats were numbers 6-10, 106-110 and 206-210. The late-euthanased rats were numbers 1-5, 101-105 and 201-205. Blood was sampled from the orbital sinus, under isoflurane anaesthesia. Blood was sampled from all animals on day −3 and just prior to euthanasia on either day 2 or day 8. Following euthanasia each rat was sampled for histopathological examination with the sampling including taking ten liver samples from each rat (two from each liver lobe). The blood samples were collected into vials containing lithium heparin as anticoagulant and immediately centrifuged at approx. minus four degrees C. to separate plasma. A portion of each plasma sample was analysed at thirty degrees C. on an AU600 multiparametric clinical analyser (Olympus) for a range of clinical chemistry parameters including alanine aminotransferase (ALT) and aspartate aminotransferase (AST) amongst many others.

[2] = test system: male Sprague-Dawley rats; experiment: Clinical chemistry analysis of plasma after dosing galactosamine HCl; assay type: in vivo, rat; conditions: plasma 24 hours post-dosing
Description: as §1, with “At” for “Thirty young adult age-matched male Sprague-Dawley rats were obtained from Charles River, France. After observation to ensure that they each appeared healthy they were placed in individual metabolism cages with free access to water and a standard commercial laboratory diet (diet AO4C from Usine d'Alimentation Rationnelle, Villemoisson-sur-Orge, France). The laboratory temperature was maintained at 20.+−−.2 degrees C. and the relative humidity at 60.±.20%. The laboratory air was filtered and changed 14 times per hour. A fixed ‘12 hours light-12 hours dark’ cycle was imposed. The study commenced after a short period of cage ‘acclimatisation’. At”

[3] = test system: male Sprague-Dawley rats; experiment: 1H NMR of post-dose urine after dosing galactosamine HCl (galactosamine excretion, endogenous metabolite changes, responder classification); assay type: in vivo, rat
Description: At the time of dosing (at the start of day 1) the growing rats were each approximately 260 g in mass. Galactosamine (abbreviated GaIN) HCl (from Sigma, France) was dissolved in physiological saline and dosed by intraperitoneal injection at either 200 mg/kg or at 800 mg/kg; ten animals (nos. 101-110) received the low dose and ten animals (nos. 201-210) received the high dose. Ten control animals (nos. 1-10) received an oral dose of corn oil.
Pre- and post-dose urine samples were collected for 7 hours daily into ice-cooled vessels containing sodium azide (0.100 ml of a 10% (w/v) solution of sodium azide in water) as an antibacterial preservative. There was an additional overnight urine collection on the day of dosing (from 7-24 hours post-dose). The urine collection apparatus was cleaned prior to each collection to minimise bacterial, food and faecal contamination. The urine samples were deep-frozen pending NMR analysis.
Urine samples were prepared for NMR analysis by mixing 400 Eli of urine with 200 μl of phosphate buffer (an 81:19 (v/v) mixture of 0.2 M Na2HPO4 and 0.2 M NaH2PO4; pH 7.4); if insufficient urine was available the shortfall was made up with purified water with a minimum of 200 μl of urine being used. The urine-buffer mixture was left to stand for 10 minutes at room temperature to enable buffering to take place and then centrifuged at 13,000 rpm for a further 10 minutes to remove suspended particulates. 500 μl of ‘clear’ buffered urine was transferred to an NMR tube and 50 μl of a TSP/D2O solution added. TSP (sodium 3-trimethylsilyl-[2,2,3,3-^2H4]-1-propionate) is a chemical shift reference compound (δ 0) used in the NMR experiment and the D2O provided a field/frequency lock for the NMR spectrometer. The concentration of the TSP/D2O solution was such as to give a final TSP concentration of 0.1 mM in the NMR tube. The NMR analyses were carried out at thirty degrees C. on a Bruker AMX 600 MHz NMR spectrometer with the NOESYPRESAT pulse sequence (Claridge, 1999) used to reduce the size of the water signal. The principal acquisition parameters were:
After acquisition, the NMR spectra were Fourier-transformed into 32768 data points following application of 0.3 Hz line-broadening by means of an exponential multiplication applied to the free induction decay signal. The spectra were phased to give an even baseline around the NMR signals and the chemical shift scale was set by assigning the value of δ 0 to the TSP peak. Prior to data-reduction, the baseline of each day −1 spectrum was moved to zero intensity using a straight-line baseline correction algorithm. All these spectral processing operations were carried out on a Silicon Graphics computer using the ‘xwinnmr’ software (Bruker GmBH).
On the basis of this visual examination, animals could be readily categorised as either (i) ‘responders’ or (ii) as ‘weak or non-responders’.

[4] = test system: male Sprague-Dawley rats; assay type: in vivo; conditions: 200 mg/kg i.p., individual animals 101-110
Description: Dosing was on the day designated as ‘day 1’ when the growing rats were each approximately 250 g in mass. Isoniazid (from Sigma, France) was dissolved in physiological saline and dosed by intraperitoneal injection at either 200 mg/kg or at 400 mg/kg; ten animals (nos. 101-110) received the low dose and ten animals (nos. 201-210) received the high dose. Ten control animals (nos. 1-10) received an intraperitoneal injection of saline.
It was intended that post-dose blood samples would be taken immediately before euthanasia with euthanasia being immediately followed by sampling for histopathology. As in Example 1, the intention was that five of each group of ten rats would be euthanased by means of CO2 at one day after dosing thereby providing early blood and histopathology samples; the remainder were to be euthanased by the same technique at seven days after dosing thereby providing late blood and histopathology samples. It was planned that the early-euthanased rats would be numbers 6-10, 106-110 and 206-210 whilst the late-euthanased rats would be numbers 1-5, 101-105 and 201-205. […] The urine samples were deep-frozen pending NMR analysis. […]

[5] = 200 mg/kg i.p., individual animals 106-110, hydrochloride
[6] = 800 mg/kg i.p., individual animals 206-210, hydrochloride
[7] = 200 mg/kg i.p., animals 101-105
[8] = 800 mg/kg i.p., animals 201-205, hydrochloride
[9] = 800 mg/kg i.p., day 2 and day 3, animals 201 and 202
[10] = 800 mg/kg i.p., day 3, animals 201 and 202
[11] = 800 mg/kg i.p., day 3, animals 201 and 202, hydrochloride

histopathological changes ([1]; day 2): No differences | histopathological changes ([1]; day 8): No differences | GGT (γ-glutamyl transferase) ([2]; 200 mg/kg i.p., individual animals 106-110): 0 IU/L | A/G (albumin/globulin ratio) [2, 5]: 1.3 and 1.4 (3×) and 1.5 | ALB (albumin) [2, 5]: 33 g/L (3×) and 37 g/L and 34 g/L | CREA (creatinine) [2, 5]: 0.5 mg/dL (4×) and 0.4 mg/dL | A/G (albumin/globulin ratio) [2, 6]: 1.7 and 2.1 and 1.5 and 2.4 and 1.8 | CREA (creatinine) [2, 6]: 0.4 mg/dL (4×) and 0.5 mg/dL | urinary creatine [3, 7]: Creatine: no increase | urinary taurine [3, 7]: instances of raised | urinary histidine ([3]; 800 mg/kg i.p., day 3, animal 201, hydrochloride): increased excretion
Structure (SMILES): Cl.N[C@H]1C(O)O[C@H](CO)[C@H](O)[C@@H]1O (stereo partly shown) [galactosamine HCl, galactosamine hydrochloride]
animals with multifocal randomly scattered foci of hepatocellular necrosis ([1]; 800 mg/kg i.p., day 2): hepatocellular necrosis were present in 4/5 | severity of changes (hepatocellular necrosis) ([1]; 800 mg/kg i.p., day 2, individual animals 206-210, hydrochloride): 207 - mild and 206, 210 - marked and 209 - severe and 208 - none | animals with minimal bile duct hyperplasia ([1]; 800 mg/kg i.p., day 8): Minimal bile duct hyperplasia was found in 2/5 | 5′-NT (5-nucleotidase) [2, 5]: 23 IU/L and 21 IU/L (2×) and 19 IU/L and 27 IU/L | ALAT (alanine aminotransferase) [2, 5]: 43 IU/L and 46 IU/L and 49 IU/L and 38 IU/L and 47 IU/L | AP (alkaline phosphatase) [2, 5]: 606 IU/L and 495 IU/L and 566 IU/L and 697 IU/L and 637 IU/L | ASAT (aspartate aminotransferase) [2, 5]: 107 IU/L and 84 IU/L and 73 IU/L and 67 IU/L and 75 IU/L | BILI (bilirubin) [2, 5]: 0.09 mg/dL and 0.05 mg/dL and 0.11 mg/dL and 0.1 mg/dL and 0.12 mg/dL | CHOL (total cholesterol) [2, 5]: 73 mg/dL and 60 mg/dL and 91 mg/dL and 72 mg/dL and 81 mg/dL | GLUC (glucose) [2, 5]: 173 mg/dL and 184 mg/dL and 167 mg/dL and 138 mg/dL and 182 mg/dL | PROT (total protein) [2, 5]: 59 g/L and 56 g/L and 61 g/L and 58 g/L and 57 g/L | TBA (total bile acids) [2, 5]: 48.0 μmol/L and 22.0 μmol/L and 29.0 μmol/L (2×) and 23.0 μmol/L | TRIG (triglycerides) [2, 5]: 94 mg/dL and 158 mg/dL and 140 mg/dL and 109 mg/dL and 127 mg/dL | UREA (urea) [2, 5]: 29 mg/dL and 40 mg/dL and 33 mg/dL and 28 mg/dL (2×) | 5′-NT (5-nucleotidase) [2, 6]: 156 IU/L and 23 IU/L and 17 IU/L and 203 IU/L and 35 IU/L | ALAT (alanine aminotransferase) [2, 6]: 2350 IU/L and 178 IU/L and 45 IU/L and 4300 IU/L and 479 IU/L | ALB (albumin) [2, 6]: 32 g/L and 33 g/L (2×) and 34 g/L and 31 g/L | AP (alkaline phosphatase) [2, 6]: 787 IU/L and 983 IU/L and 666 IU/L and 999 IU/L and 852 IU/L | ASAT (aspartate aminotransferase) [2, 6]: 4320 IU/L and 264 IU/L and 79 IU/L and 10600 IU/L and 832 IU/L | BILI (bilirubin) [2, 6]: 1.26 mg/dL and 0.06 mg/dL and 0.11 mg/dL and 1.37 mg/dL and 0.12 mg/dL | CHOL (total cholesterol) [2, 6]: 60 mg/dL and 15 mg/dL and 61 mg/dL and 42 mg/dL and 46 mg/dL | GGT (γ-glutamyl transferase) [2, 6]: 2 IU/L and 0 IU/L (2×) and 5 IU/L and 1 IU/L | GLUC (glucose) [2, 6]: 100 mg/dL and 162 mg/dL and 168 mg/dL and 80 mg/dL and 130 mg/dL | PROT (total protein) [2, 6]: 51 g/L and 49 g/L and 56 g/L and 47 g/L and 48 g/L | TBA (total bile acids) [2, 6]: 493 µmol/L and 43.0 µmol/L and 20.0 µmol/L and 1300 µmol/L and 65.0 µmol/L | TRIG (triglycerides) [2, 6]: 38 mg/dL (2×) and 89 mg/dL and 148 mg/dL and 95 mg/dL | UREA (urea) [2, 6]: 45 mg/dL and 24 mg/dL and 29 mg/dL and 40 mg/dL and 25 mg/dL | urinary 2-oxoglutarate [3, 8]: 2-Oxoglutarate: Animals 203-205 showed no obvious change and reduced levels on days 2 and 3 but very high levels on day 7. | urinary taurine [3, 8]: increases; also recorded: Taurine: Animals 203-205 showed no clear change whilst; also recorded: animals 201 & 202 showed highly elevated levels | urinary guanidinoacetic acid (GAA) ([3]; 800 mg/kg i.p., animals 201 and 202, hydrochloride): increases; also recorded: very much increased levels on day 3 and perhaps somewhat | urinary betaine ([3]; 800 mg/kg i.p., day 2 and day 3, animals 201 & 202, hydrochloride): increases; also recorded: Betaine: appeared very clearly in the day 2 and day 3 samples | urinary glucose [3, 9]: Glucose: appeared to be elevated in the day 2 and day 3 | urinary urocanic acid [3, 9]: Urocanic acid: appeared clearly in the day 2 and day 3 | urinary glutamate and glutamine ([3]; 800 mg/kg i.p., day 3, animal 201): Glutamate and glutamine were elevated in the day 3 urine | urinary trimethylamine-N-oxide (TMAO) ([3]; 800 mg/kg i.p., day 3, animals 201 & 202, hydrochloride): decreases; also recorded: levels, TMAO had essentially disappeared from the day 3 | urinary bile acids (seen as C18 methyl) [3, 10]: Bile acids: clearly increased (seen as C18 methyl) in the day | urinary threonine [3, 10]: Threonine: was very clearly elevated in the day 3 samples | urinary creatine [3, 11]: increases; also recorded: Creatine: Only animals 201 and 202 showed a clear increase | urinary hippurate [3, 11]: decreased excretion; also recorded: Hippurate: was depleted in the day 3 samples from animals | Total amount of galactosamine excreted in the urine from 0-24 hours post-dosing ([3]; 800 mg/kg i.p., individual animals 201-210, hydrochloride): 40.0 mg and 26.2 mg and 0.4 mg and 0.1 mg and 0.3 mg and 14.9 mg and 8.4 mg and 2.3 mg and 28.2 mg and 30.5 mg

Structure (SMILES): NNC(=O)c1ccncc1 [isoniazid]
Premature Death? [4]: No
